Test results from ChEMBL document CHEMBL1208705, “4-(3-Trifluoromethylphenyl)-pyrimidine-2-carbonitrile as cathepsin S inhibitors: N3, not N1 is critically important” (Bioorg Med Chem Lett, 2010).

Assay: Chemical stability of the compound assessed as half life at 1.25 mM in presence of glutathione by NMR analysis
Assay type: physicochemical
Conditions: gsh

half-life at 1250 µM	SMILES
120 h	CN1CCN(CCCOc2ccc(-c3ccnc(C#N)c3)cc2C(F)(F)F)CC1
150 h	CN1CCN(CCCOc2ccc(-c3cccc(C#N)n3)cc2C(F)(F)F)CC1
